The source of these data is patent US10479819B2 (priority 2014, dated 2019).

In one data set the target is T1, human GCGR (Homo sapiens, UniProt P47871).
T1 construct: expressed in transfected cells
As to the kind of experiment: In vitro activity on GCGR, CRE-luciferase HEK-293 cells. The format is cell-based. How it is done:
5000 of HEK-293 cells, which are used in CRE-luciferase system and express human GCGR or GLP-1R stably, were inoculated into 384 well plates according to […] DMEM/10% FBS media/well. […] After incubation, […] of luciferase reagent was added directly to each plate and mixed gently for 2 minutes. The plates were placed into an Elmer Perkin plate reader for reading. Concentration curve of the compound was made by drawing software Prism 5, and the EC50 value was calculated.

In a further data set the target is T2, human GLP-1R (Homo sapiens, UniProt P43220).
T2 construct: expressed in transfected cells
T2 sequence (P43220 24-463): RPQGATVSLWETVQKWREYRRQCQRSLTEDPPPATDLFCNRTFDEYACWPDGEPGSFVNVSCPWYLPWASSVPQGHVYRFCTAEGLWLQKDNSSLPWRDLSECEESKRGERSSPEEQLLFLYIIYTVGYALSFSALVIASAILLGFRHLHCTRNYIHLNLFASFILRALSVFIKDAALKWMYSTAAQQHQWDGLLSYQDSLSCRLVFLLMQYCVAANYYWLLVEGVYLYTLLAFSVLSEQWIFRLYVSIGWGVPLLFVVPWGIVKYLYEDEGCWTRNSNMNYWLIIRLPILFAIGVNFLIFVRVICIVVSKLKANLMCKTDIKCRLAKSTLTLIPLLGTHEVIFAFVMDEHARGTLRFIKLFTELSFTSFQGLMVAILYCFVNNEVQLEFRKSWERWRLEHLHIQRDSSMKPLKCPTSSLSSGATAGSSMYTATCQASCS
As to the kind of experiment: In vitro activity on GLP-1R, CRE-luciferase HEK-293 cells. The format is cell-based. The following applies: for GLP-1R/GCGR: ratio of EC50 GLP-1R to EC50 GCGR. In a few lines:
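HEK-293 cells stably expressing human GLP-1R or human GCGR with CRE-luciferase reporter, 5000 cells/well in DMEM/10% FBS, exposed to compound. Luminescence read after luciferase reagent; EC50 taken from concentration-response curves.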

The next data set deals with male C57B1/6J mice. As to the kind of experiment: Oral glucose tolerance test in male C57B1/6J mice. The format is in vivo. The following applies: 250 μg/kg; for AUC of blood glucose in all four OGTT curve periods (0-480 min) compared with carrier (PBS): P<0.05; for effect on oral glucose tolerance: male C57B1/6J mice. How it is done:
12-16 week-old male C57B1/6J mice (Nanjing University model animal research center) were randomly divided into groups 8 in each group, according to similar blood glucose (assessed by the blood samples obtained from the tail tip). After fasting (for 6 hours), the animals were administrated, and about 4 hours later, initial blood samples (fasting blood glucose level) were taken. Subsequently, the animals were administrated with an oral dose of glucose, and then put back into their cages (t=0). Blood glucose was measured at t=15 minutes, t=30 minutes, t=60 minutes, t=90 minutes and t=120 minutes. And then the animals were administrated with an oral dose of glucose again, and blood glucose was tracked until 8 hours.

Data set [1] is described as follows: Pharmacokinetic analysis after IV or SC administration in male CD1 mice. The following applies: for clinical adverse effect: IV or SC route, male CD1 mice; for Tmax / half-life: mouse, in vivo, iv. The method, then: Pharmacokinetic parameters of the drugs were calculated by methods of model dependence (for data obtained from IV) and model independence (data obtained from SC).

Like-named read-outs stand apart in the source and are kept apart here. Starred links: 1 amine or outer side, 2 acyl side, 3 side chain; linkers in the order of their positions; H or OH if unused. Non-standard residues stand in square brackets, D forms with d. Residues, ends and D or L forms follow the SMILES beside them. Groups on a side chain read outwards from the residue. *: point of attachment. C18 diacid = O=C(O)CCCCCCCCCCCCCCCCC(=O)*; γGlu = O=C(O)[C@H](CCC(=O)[*:2])N[*:1]; Palmitoyl = CCCCCCCCCCCCCCCC(=O)*; PEG2 = NCCOCCOCCC(=O)O; Aib = CC(C)(N)C(=O)O

T1 sequence (P47871 26-477): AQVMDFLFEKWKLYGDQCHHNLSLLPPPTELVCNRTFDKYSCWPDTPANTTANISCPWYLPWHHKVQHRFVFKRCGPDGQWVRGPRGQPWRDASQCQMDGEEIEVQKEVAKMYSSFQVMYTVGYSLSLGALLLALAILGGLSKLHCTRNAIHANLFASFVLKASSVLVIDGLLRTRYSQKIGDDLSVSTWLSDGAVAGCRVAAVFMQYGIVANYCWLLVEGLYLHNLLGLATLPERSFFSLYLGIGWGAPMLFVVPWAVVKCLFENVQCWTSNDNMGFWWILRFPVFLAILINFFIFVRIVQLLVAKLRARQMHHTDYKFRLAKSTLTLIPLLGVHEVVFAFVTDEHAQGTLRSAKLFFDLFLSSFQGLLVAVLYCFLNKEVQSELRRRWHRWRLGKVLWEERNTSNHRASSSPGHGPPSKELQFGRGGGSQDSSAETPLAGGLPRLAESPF

Take `CCCCCCCCCCCCCCCC(=O)N[C@@H](CCC(=O)NCCOCCOCCC(=O)NCCOCCOCCC(=O)NCCCC[C@H](NC(=O)[C@H](C)NC(=O)[C@H](C)NC(=O)[C@H](CCCCN)NC(=O)[C@H](CCC(=O)O)NC(=O)[C@H](CC(=O)O)NC(=O)[C@H](CC(C)C)NC(=O)[C@H](Cc1ccc(O)cc1)NC(=O)[C@H](CCCCN)NC(=O)[C@H](CO)NC(=O)[C@H](Cc1ccc(O)cc1)NC(=O)[C@H](CC(=O)O)NC(=O)[C@H](CO)NC(=O)[C@@H](NC(=O)[C@H](Cc1ccccc1)NC(=O)[C@@H](NC(=O)CNC(=O)[C@H](CCC(N)=O)NC(=O)[C@@H](CO)NC(=O)[C@@H](N)Cc1c[nH]cn1)[C@@H](C)O)[C@@H](C)O)C(=O)N[C@@H](CCC(=O)O)C(=O)N[C@@H](Cc1ccccc1)C(=O)N[C@H](C(=O)N[C@@H](CCC(=O)O)C(=O)N[C@@H](Cc1c[nH]c2ccccc12)C(=O)N[C@@H](CC(C)C)C(=O)N[C@@H](CC(C)C)C(=O)N[C@@H](CC(N)=O)C(=O)NCC(=O)NCC(=O)N1CCC[C@H]1C(=O)N[C@@H](CO)C(=O)N[C@@H](CO)C(=O)NCC(=O)N[C@@H](C)C(=O)N1CCC[C@H]1C(=O)N1CCC[C@H]1C(=O)N1CCC[C@H]1C(=O)N[C@@H](CO)C(N)=O)[C@@H](C)CC)C(=O)O` [Compound 24] (H-H[dS]QGTFTSDYSKYLDEKAAK([PEG2-PEG2-γGlu-Palmitoyl])EFIEWLLNGGPSSGAPPPS-NH2): the EC50 (in general, the midpoint of the concentration-response curve) on human GCGR was found to be 0.58 nM. The GLP-1R/GCGR on human GLP-1R amounted to 0.28. Further, in the data set on male C57B1/6J mice, the “AUC of blood glucose in all four OGTT curve periods (0-480 min) compared with carrier (PBS)” value is on record as “significantly decreased” and the “effect on oral glucose tolerance” value is given as “significantly reduced the oral glucose tolerance”. In data set [1], the clinical adverse effect result was “no clinical adverse effect”; the Tmax (in general, the time at which the peak concentration occurs) is approximately 12 h; the half-life (as a rule, the time in which the quantity being followed falls by half) lay in the range of 4 to 6 h.

Turning to `CCCCCCCCCCCCCCCC(=O)NCCOCCOCCC(=O)NCCOCCOCCC(=O)NCCCC[C@H](NC(=O)[C@H](C)NC(=O)[C@H](C)NC(=O)[C@H](CCCCN)NC(=O)[C@H](CCC(=O)O)NC(=O)[C@H](CC(=O)O)NC(=O)[C@H](CC(C)C)NC(=O)[C@H](Cc1ccc(O)cc1)NC(=O)[C@H](CCCCN)NC(=O)[C@H](CO)NC(=O)[C@H](Cc1ccc(O)cc1)NC(=O)[C@H](CC(=O)O)NC(=O)[C@H](CO)NC(=O)[C@@H](NC(=O)[C@H](Cc1ccccc1)NC(=O)[C@@H](NC(=O)CNC(=O)[C@H](CCC(N)=O)NC(=O)[C@@H](CO)NC(=O)[C@@H](N)Cc1c[nH]cn1)[C@@H](C)O)[C@@H](C)O)C(=O)N[C@@H](CCC(=O)O)C(=O)N[C@@H](Cc1ccccc1)C(=O)N[C@H](C(=O)N[C@@H](CCC(=O)O)C(=O)N[C@@H](Cc1c[nH]c2ccccc12)C(=O)N[C@@H](CC(C)C)C(=O)N[C@@H](CC(C)C)C(=O)N[C@@H](CC(N)=O)C(=O)NCC(=O)NCC(=O)N1CCC[C@H]1C(=O)N[C@@H](CO)C(=O)N[C@@H](CO)C(=O)NCC(=O)N[C@@H](C)C(=O)N1CCC[C@H]1C(=O)N1CCC[C@H]1C(=O)N1CCC[C@H]1C(=O)N[C@@H](CO)C(N)=O)[C@@H](C)CC` [Compound 23] (H-H[dS]QGTFTSDYSKYLDEKAAK([PEG2-PEG2-Palmitoyl])EFIEWLLNGGPSSGAPPPS-NH2), a half-maximal effect at human GCGR (EC50) was put at 0.43 nM. Besides, at human GLP-1R, the response was half-maximal at 0.13 nM (EC50) and the GLP-1R/GCGR came out at 0.30. In addition, in the data set with male C57B1/6J mice, the “AUC of blood glucose in all four OGTT curve periods (0-480 min) compared with carrier (PBS)” value is reported as “significantly decreased” and the “effect on oral glucose tolerance” value is reported as “significantly reduced the oral glucose tolerance”. In data set [1], the clinical adverse effect entry is given as “no clinical adverse effect”, the Tmax is approximately 12 h and the half-life lay in the range of 4 to 6 h.

With `CSCC[C@H](NC(=O)[C@H](CC(C)C)NC(=O)[C@H](Cc1c[nH]c2ccccc12)NC(=O)[C@H](CCC(N)=O)NC(=O)[C@@H](NC(=O)[C@H](Cc1ccccc1)NC(=O)[C@H](CC(=O)O)NC(=O)[C@H](CCC(N)=O)NC(=O)[C@H](C)NC(=O)[C@H](CCCNC(=N)N)NC(=O)[C@H](CCCNC(=N)N)NC(=O)C(C)(C)NC(=O)[C@H](CC(=O)O)NC(=O)[C@H](CC(C)C)NC(=O)[C@H](Cc1ccc(O)cc1)NC(=O)[C@H](CCCCN)NC(=O)[C@H](CO)NC(=O)[C@H](CCCCNC(=O)CCOCCOCCNC(=O)CCOCCOCCNC(=O)CC[C@H](NC(=O)CCCCCCCCCCCCCCCCC(=O)O)C(=O)O)NC(=O)[C@H](CC(=O)O)NC(=O)[C@H](CO)NC(=O)[C@@H](NC(=O)[C@H](Cc1ccccc1)NC(=O)[C@@H](NC(=O)CNC(=O)[C@H](CCC(N)=O)NC(=O)[C@@H](CO)NC(=O)[C@@H](N)Cc1c[nH]cn1)[C@@H](C)O)[C@@H](C)O)C(C)C)C(=O)N[C@@H](CC(N)=O)C(=O)N[C@H](C(=O)NCC(=O)NCC(=O)N1CCC[C@H]1C(=O)N[C@@H](CO)C(=O)N[C@@H](CO)C(=O)NCC(=O)N[C@@H](C)C(=O)N1CCC[C@H]1C(=O)N1CCC[C@H]1C(=O)N1CCC[C@H]1C(=O)N[C@@H](CO)C(N)=O)[C@@H](C)O` [Compound 8], at human GCGR (read-out: GCGR (EC50)), the EC50 is 0.18 nM. The GLP-1R/GCGR at human GLP-1R amounted to 1.1.

In the case of `CSCC[C@H](NC(=O)[C@H](CC(C)C)NC(=O)[C@H](Cc1c[nH]c2ccccc12)NC(=O)[C@H](CCC(N)=O)NC(=O)[C@@H](NC(=O)[C@H](Cc1ccccc1)NC(=O)[C@H](CC(=O)O)NC(=O)[C@H](CCC(N)=O)NC(=O)[C@H](C)NC(=O)[C@H](CCCNC(=N)N)NC(=O)[C@H](CCCNC(=N)N)NC(=O)[C@H](CCCCNC(=O)CCOCCOCCNC(=O)CCOCCOCCNC(=O)CC[C@H](NC(=O)CCCCCCCCCCCCCCCCC(=O)O)C(=O)O)NC(=O)[C@H](CC(=O)O)NC(=O)[C@H](CC(C)C)NC(=O)[C@H](Cc1ccc(O)cc1)NC(=O)[C@H](CCCCN)NC(=O)[C@H](CO)NC(=O)[C@H](Cc1ccc(O)cc1)NC(=O)[C@H](CC(=O)O)NC(=O)[C@H](CO)NC(=O)[C@@H](NC(=O)[C@H](Cc1ccccc1)NC(=O)[C@@H](NC(=O)CNC(=O)[C@H](CCC(N)=O)NC(=O)[C@@H](CO)NC(=O)[C@@H](N)Cc1c[nH]cn1)[C@@H](C)O)[C@@H](C)O)C(C)C)C(=O)N[C@@H](CC(N)=O)C(=O)N[C@H](C(=O)NCC(=O)NCC(=O)N1CCC[C@H]1C(=O)N[C@@H](CO)C(=O)N[C@@H](CO)C(=O)NCC(=O)N[C@@H](C)C(=O)N1CCC[C@H]1C(=O)N1CCC[C@H]1C(=O)N1CCC[C@H]1C(=O)N[C@@H](CO)C(N)=O)[C@@H](C)O` [Compound 11], the EC50 came out at 0.18 nM on human GCGR (read-out: GCGR (EC50)) and 0.15 nM at human GLP-1R (read-out: GLP-1R (EC50)). The GLP-1R/GCGR on human GLP-1R stood at 0.8.

As to `CSCC[C@H](NC(=O)[C@H](CC(C)C)NC(=O)[C@H](Cc1c[nH]c2ccccc12)NC(=O)[C@H](CCC(N)=O)NC(=O)[C@@H](NC(=O)[C@H](Cc1ccccc1)NC(=O)[C@H](CC(=O)O)NC(=O)[C@H](CCC(N)=O)NC(=O)[C@H](C)NC(=O)[C@H](CCCNC(=N)N)NC(=O)[C@H](CCCNC(=N)N)NC(=O)C(C)(C)NC(=O)[C@H](CC(=O)O)NC(=O)[C@H](CC(C)C)NC(=O)[C@H](CCCCN)NC(=O)[C@H](CCCCNC(=O)CCOCCOCCNC(=O)CCOCCOCCNC(=O)CC[C@H](NC(=O)CCCCCCCCCCCCCCCCC(=O)O)C(=O)O)NC(=O)[C@H](CO)NC(=O)[C@H](Cc1ccc(O)cc1)NC(=O)[C@H](CC(=O)O)NC(=O)[C@H](CO)NC(=O)[C@@H](NC(=O)[C@H](Cc1ccccc1)NC(=O)[C@@H](NC(=O)CNC(=O)[C@H](CCC(N)=O)NC(=O)[C@@H](CO)NC(=O)[C@@H](N)Cc1c[nH]cn1)[C@@H](C)O)[C@@H](C)O)C(C)C)C(=O)N[C@@H](CC(N)=O)C(=O)N[C@H](C(=O)NCC(=O)NCC(=O)N1CCC[C@H]1C(=O)N[C@@H](CO)C(=O)N[C@@H](CO)C(=O)NCC(=O)N[C@@H](C)C(=O)N1CCC[C@H]1C(=O)N1CCC[C@H]1C(=O)N1CCC[C@H]1C(=O)N[C@@H](CO)C(N)=O)[C@@H](C)O` [Compound 18] (H-H[dS]QGTFTSDYSK([PEG2-PEG2-γGlu-C18 diacid])KLD[Aib]RRAQDFVQWLMNTGGPSSGAPPPS-NH2; N-terminus assumed), the EC50 on human GCGR (read-out: GCGR (EC50)) was 0.18 nM. Moreover, the GLP-1R/GCGR at human GLP-1R is given as 4.2.
